In PubChem BioAssay (NCI):
Several values for one entry are separate records, joined by “and”; a condition that tells them apart may be missing. Identical values can stand only once.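 Values below derive from 48-hour exposures of cells grown in 96-well plates, with endpoints linearly interpolated between the two concentrations bracketing the appropriate inhibition level. GI50 marks 50% less growth. TGI denotes the concentration required for complete inhibition of growth.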

Key:
Test in all cases: DTP human tumour cell line panel, 48 h
786-0 renal = system: 786-0 renal
LXFL 529 NSCLC = system: LXFL 529 NSCLC
DMS 273 small cell lung = system: DMS 273 small cell lung
M19-MEL melanoma = system: M19-MEL melanoma
DMS 114 small cell lung = system: DMS 114 small cell lung
OVCAR-3 ovarian = system: OVCAR-3 ovarian
SNB-78 CNS = system: SNB-78 CNS
MOLT-4 leukemia = system: MOLT-4 leukemia
KM20L2 colon = system: KM20L2 colon
DLD-1 colon = system: DLD-1 colon
RXF 393 renal = system: RXF 393 renal
XF 498 CNS = system: XF 498 CNS
U251 CNS = system: U251 CNS
HOP-18 NSCLC = system: HOP-18 NSCLC
MDA-N = system: MDA-N

| Structure (SMILES) | TGI (786-0 renal) | TGI (LXFL 529 NSCLC) | TGI (DMS 273 small cell lung) | TGI (M19-MEL melanoma) | TGI (DMS 114 small cell lung) | TGI (OVCAR-3 ovarian) | TGI (SNB-78 CNS) | TGI (MOLT-4 leukemia) | TGI (KM20L2 colon) | TGI (DLD-1 colon) | TGI (RXF 393 renal) | TGI (XF 498 CNS) | TGI (U251 CNS) | TGI (HOP-18 NSCLC) | TGI (MDA-N) | GI50 (DMS 114 small cell lung) | GI50 (MOLT-4 leukemia) |
| --- | --- | --- | --- | --- | --- | --- | --- | --- | --- | --- | --- | --- | --- | --- | --- | --- | --- |
| N#CNC(=NCCc1c[nH]c2ccccc12)Oc1ccccc1 | > 100 µM | > 100 µM | > 100 µM | > 100 µM | > 100 µM | > 100 µM | > 100 µM | > 100 µM | 49.8 µM | > 100 µM | > 100 µM | > 100 µM | > 100 µM |  |  |  |  |
| CC(Oc1ccc(OCC2CCCCC2)cc1)C(=O)NCc1ccco1 (stereo not drawn) | > 100 µM | > 100 µM | 94.1 µM | > 100 µM | 56.6 µM | > 100 µM | > 100 µM | > 100 µM |  | > 100 µM | 71.4 µM | > 100 µM | > 100 µM | > 100 µM |  |  |  |
| O=c1cc(-c2cccnc2)[nH]c2cc3c(cc12)OCO3 | > 100 µM | 26.8 µM | > 100 µM | > 100 µM | > 100 µM | > 20.7 µM | > 100 µM | > 100 µM |  | > 100 µM | > 96.3 µM | 72.7 µM | 30.8 µM | 84.1 µM | 5.71 µM |  |  |
| COc1cc(C2c3cc4c(cc3[C@@H](NCCN3CCOCC3)C3COC(=O)[C@H]23)OCO4)cc(OC)c1O (stereo partly drawn) | 5.11 µM and 7.93 µM | 34.1 µM and > 17.5 µM | 7.72 µM and 5.44 µM |  | 5.05 µM and 8.98 µM | 21.5 µM and 14.3 µM | > 75 µM | 4.48 µM and 4.87 µM | 16.7 µM and > 17.5 µM | 22.8 µM and > 17.5 µM | 9.33 µM and 10.4 µM |  | 5.46 µM and 5.53 µM | 32.9 µM and > 17.5 µM |  | 1.43 µM and 2.95 µM | 0.137 µM and 0.402 µM |
| O=C(c1ccccc1)N1C(=S)N(c2ccccn2)C(=Nc2ccccc2)C1=Nc1ccccc1 | > 82.8 µM |  |  |  |  | 45.6 µM |  | > 54.8 µM |  |  | 25.9 µM |  | 39.6 µM |  | > 50.7 µM |  |  |
| COC(=O)/C=C1/OC(c2ccc(OC)cc2)=C(Cl)C1=O | 24.4 µM |  |  |  |  | 26.3 µM |  | 12.3 µM |  |  | 31.7 µM |  | 22.4 µM |  | 32.7 µM |  |  |
| O=C(c1cc2c(c3ccccc13)NC1(CCCCC1)N=C2C(F)(F)F)C(F)(F)F | 14.1 µM |  |  |  |  | 7.81 µM |  | 14.5 µM |  |  | 12.7 µM |  | 13.9 µM |  | 14.2 µM |  |  |
| CN(C)Cc1cc(N=Nc2ccc(Cl)cc2)cc(CN(C)C)c1O | 17.9 µM |  |  |  |  | 6.78 µM |  | 10.7 µM |  |  | 25.1 µM |  | 19.8 µM |  | 29.2 µM |  |  |
| CCCCCCCCCCCCCCCCCCOCC(O)COP(=O)(O)OCC1OC(n2ccc(N)nc2=O)C(O)C1O (stereo not drawn) | 26.5 µM |  |  |  |  | > 100 µM |  | 20 µM |  |  | 33.3 µM |  | 30.2 µM |  | > 100 µM |  |  |
| OC1CSc2nc3ccccc3n2C1 (stereo not drawn) | > 100 µM |  |  |  |  | > 100 µM |  | > 100 µM |  |  | > 100 µM |  | > 100 µM |  | > 100 µM |  |  |
| Nc1nc(-c2ccco2)cc(-c2ccc(CO)o2)n1 | > 100 µM | > 100 µM | > 100 µM | > 100 µM | > 100 µM | > 100 µM | > 100 µM | > 100 µM | > 100 µM |  | > 100 µM | > 100 µM |  |  |  |  |  |
| CSc1nc2c(c(=O)[nH]1)N=C(c1ccccc1)CC(c1ccccc1)N2 (stereo not drawn) | > 100 µM |  |  |  |  | > 100 µM |  | 59.6 µM |  |  | 79.6 µM |  | > 100 µM |  | 46.6 µM |  |  |
| CCOP(=O)(OCC)OC1c2[nH]cc(C(=O)OCc3ccccc3)c2-c2cc(C(=O)OC)[nH]c2C1OC (stereo not drawn) | 27.4 µM |  |  |  |  | 54.8 µM |  | > 100 µM |  |  | > 56.3 µM |  | > 96.6 µM |  | > 100 µM |  |  |
| N#Cc1c(-c2ccccc2)c(CN2CCCCC2)c(=O)n2c1[nH]c1ccccc12 | 95.6 µM |  |  |  |  | 58.3 µM |  | 45.4 µM |  |  | > 100 µM |  | > 100 µM |  | > 100 µM |  |  |
| CC(=O)CC1=C(OC(C)C)C2(OCCO2)C1O (stereo not drawn) | > 100 µM |  |  |  |  | > 100 µM |  | > 100 µM |  |  | > 100 µM |  | > 100 µM |  | > 100 µM |  |  |
| Cc1ccc2c(/C=C/c3ccc(N(C)C)cc3)ccc(C(C)C)cc1-2 | > 100 µM |  |  |  |  | > 100 µM |  | > 100 µM |  |  | > 100 µM |  | > 100 µM |  | > 100 µM |  |  |
| CC1=C(C(=O)N[C@@H](CC(C)C)C(=O)O)N2C(=O)[C@@H](NC(=O)C(N)c3ccccc3)[C@H]2SC1 (stereo partly drawn) | > 100 µM |  |  |  |  | > 100 µM |  | > 100 µM |  |  | > 100 µM |  | > 100 µM |  | > 100 µM |  |  |
| O=C(N/N=C/c1ccccc1)c1cccc2nc3ccccc3nc12 | > 100 µM |  |  |  |  | > 100 µM |  | > 100 µM |  |  | > 100 µM |  | > 100 µM |  | > 100 µM |  |  |
